# Data from patent US11339156B2, “3-(1H-pyrazol-4-yl)pyridine allosteric modulators of the M4 muscarinic acetylcholine receptor” (Merck Sharp & Dohme Corp., priority 2017, dated 2022).
# Biological target: T1, human M4 muscarinic acetylcholine receptor (Homo sapiens, UniProt P08173)
# T1 construct: expressed in transfected cells
# T1 sequence (P08173 1-479): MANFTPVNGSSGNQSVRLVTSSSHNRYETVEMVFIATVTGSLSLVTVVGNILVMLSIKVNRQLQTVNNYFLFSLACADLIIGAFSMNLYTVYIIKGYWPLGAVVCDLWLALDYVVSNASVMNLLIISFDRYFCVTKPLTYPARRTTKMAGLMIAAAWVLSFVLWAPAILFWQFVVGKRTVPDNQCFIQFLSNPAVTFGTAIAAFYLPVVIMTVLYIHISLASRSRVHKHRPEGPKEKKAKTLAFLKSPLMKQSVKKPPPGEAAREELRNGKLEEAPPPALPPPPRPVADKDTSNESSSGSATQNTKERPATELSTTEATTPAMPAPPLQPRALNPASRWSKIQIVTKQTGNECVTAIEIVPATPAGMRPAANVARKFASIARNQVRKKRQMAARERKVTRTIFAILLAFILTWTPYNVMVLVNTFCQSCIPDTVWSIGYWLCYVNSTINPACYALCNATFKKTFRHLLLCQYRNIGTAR
# Test: human FLIPR-based M4 PAM assay (CHO-K1 cells with human M4 receptor and Gαqi5, calcium dye fluorescence)
# Format: cell-based
# Details: inflection point of 4 parameter logistic fit; acetylcholine added at 20% of maximum response; read-out: M4PAM IP
# Procedure: In a typical experiment the M4 muscarinic acetylcholine receptor modulating activity of the compounds of the present invention was determined in accordance with the following experimental method. CHO-K1 cells stably transfected with human M4 receptor and chimeric G-protein Gαqi5 (Coward P, et al., Analytical Biochemistry, 270:242-248 (1999)) are thawed from liquid N2 storage, resuspended in growth medium, plated in black, clear bottom 384 well plates, and incubated 16-20 hours at 37° C., 5% CO2. On the day of assay, growth medium is removed, the cells are washed 2 times with wash buffer, and cells are incubated in dye loading buffer at 37° C., 5% CO2 for ˜1 hour. Following dye loading the cell plates are placed in a FLIPR Tetra instrument and while monitoring dye fluorescence (excitation […]), 10 uL of test substance at increasing concentrations is added, and fluorescence values are recorded for 4 min. Next, 10 uL of acetylcholine is added (final concentration calculated so as to achieve 20% of the maximum acetycholine response), and the fluorescence reading is continued for 3.5 min. In some cases, a third addition of acetylcholine (final concentration calculated to achieve 70% of the maximal acetylcholine response) is performed. The resulting dose response curves are fit to a 4 parameter logistic equation and the final result is determined as the inflection point (IP) of the curve
# CHO-K1 cells stably transfected with human M4 receptor and chimeric G-protein Gαqi5 are thawed from liquid N2 storage, resuspended in growth medium, plated in black, clear bottom 384 well plates, and incubated 16-20 hours at 37° C., 5% CO2.
# On the day of assay, growth medium is removed, the cells are washed 2 times with wash buffer, and cells are incubated in dye loading buffer at 37° C., 5% CO2 for ˜1 h. Following dye loading the cell plates are placed in a FLIPR Tetra instrument and while monitoring dye fluorescence ([…]), 10 uL of test substance at increasing concentrations is added, and fluorescence values are recorded for 4 min. Next, 10 uL of acetylcholine is added (final concentration calculated so as to achieve 20% of the maximum acetycholine response), and the fluorescence reading is continued for 3.5 min. In some cases, a third addition of acetylcholine (final concentration calculated to achieve 70% of the maximal acetylcholine response) is performed.
row,EC50 [nM],SMILES
1,95.9,"CC1(Cn2cc(-c3ccc(C#N)nc3-c3ccn4ccnc4c3)cn2)CCOC1 (racemic) [Example 108, 6-(imidazo[1,2-a]pyridin-7-yl)-5-(1-((3-methyltetrahydrofuran-3-yl)methyl)-1H-pyrazol-4-yl)picolinonitrile]"
2,58.6,"N#Cc1ccc(-c2cnn(CC(F)(F)C3CC3)c2)c(-c2ccn3ccnc3c2)n1 [Example 1, 5-(1-(2-cyclopropyl-2,2-difluoroethyl)-1H-pyrazol-4-yl)-6-(imidazo[1,2-a]pyridin-7-yl)picolinonitrile]"
3,76,"Cc1ccc(-c2cnn(CC3(C)CCCCC3)c2)c(-c2ccc3cn(C)nc3c2)n1 [Example 2, 2-methyl-6-(6-methyl-3-{1-[(1-methylcyclohexyl)methyl]-1H-pyrazol-4-yl}pyridin-2-yl)-2H-indazole]"
4,66.6,"Cc1ccc(-c2cnn(CC3(C)CCCCC3)c2)c(-c2ccc3cn[nH]c3c2)n1 [Example 3, 6-(6-methyl-3-{1-[(1-methylcyclohexyl)methyl]-1H-pyrazol-4-yl}pyridin-2-yl)-1H-indazole]"
5,69.9,"Cc1ccc(-c2cnn(CC3(C)CCCCC3)c2)c(-c2ccc3c(C)n[nH]c3c2)n1 [Example 4, 3-methyl-6-(6-methyl-3-{1-[(1-methylcyclohexyl)methyl]-1H-pyrazol-4-yl}pyridin-2-yl)-1H-indazole]"
6,38.8,"Cc1ccc(-c2cnn(CC3(C)CCCCC3)c2)c(-c2cnc3c(c2)ncn3C)n1 [Example 5, 3-methyl-6-(6-methyl-3-{1-[(1-methylcyclohexyl)methyl]-1H-pyrazol-4-yl}pyridin-2-yl)-3H-imidazo[4,5-b]pyridine]"
7,17.6,"Cc1ccc(-c2cnn(CC34CC(C3)C4)c2)c(-c2ccc3c(c2)C(=O)N(C)C3)n1 [Example 7, 6-{3-[1-(bicyclo[1.1.1]pent-1-ylmethyl)-1H-pyrazol-4-yl]-6-methylpyridin-2-yl}-2-methyl-2,3-dihydro-1H-isoindol-1-one]"
8,26.6,"Cc1ccc(-c2cnn(CC34CC(C3)C4)c2)c(-c2ccc3c(c2)C(=O)NC3)n1 [Example 8, 6-{3-[1-(bicyclo[1.1.1]pent-1-ylmethyl)-1H-pyrazol-4-yl]-6-methylpyridin-2-yl}-2,3-dihydro-1H-isoindol-1-one]"
9,80.8,"Cc1ccc(-c2cnn(CCC(C)(C)F)c2)c(-c2ccc3c(c2)C(=O)N(C)C3)n1 [Example 9, 6-{3-[1-(3-fluoro-3-methylbutyl)-1H-pyrazol-4-yl]-6-methylpyridin-2-yl}-2-methyl-2,3-dihydro-1H-isoindol-1-one]"
10,130,"Cc1ccc(-c2cnn(CCC(C)(C)F)c2)c(-c2ccc3c(c2)C(=O)NC3)n1 [Example 10, 6-{3-[1-(3-fluoro-3-methylbutyl)-1H-pyrazol-4-yl]-6-methylpyridin-2-yl}-2,3-dihydro-1H-isoindol-1-one]"
11,136,"Cc1ccc(-c2cnn(Cc3ccccc3)c2)c(-c2ccc3c(c2)C(=O)N(CC2CC2)C3)n1 [Example 11, 6-[3-(1-benzyl-1H-pyrazol-4-yl)-6-methylpyridin-2-yl]-2-(cyclopropylmethyl)-2,3-dihydro-1H-isoindol-1-one]"
12,24.5,"Cc1ccc(-c2cnn(CC34CCC(CC3)CC4)c2)c(-c2ccc3c(c2)C(=O)N(CC2CC2)C3)n1 [Example 12, 6-{3-[1-(bicyclo[2.2.2]oct-1-ylmethyl)-1H-pyrazol-4-yl]-6-methylpyridin-2-yl}-2-(cyclopropylmethyl)-2,3-dihydro-1H-isoindol-1-one]"
13,126,"Cc1ccc(-c2cnn(Cc3ccccc3F)c2)c(-c2ccc3c(c2)C(=O)N(C2CC2)C3)n1 [Example 13, 2-cyclopropyl-6-{3-[1-(2-fluorobenzyl)-1H-pyrazol-4-yl]-6-methylpyridin-2-yl}-2,3-dihydro-1H-isoindol-1-one]"
14,48.8,"Cc1ccc(-c2cnn(CC3CCC(F)(F)CC3)c2)c(-c2ccc3c(c2)C(=O)N(CC2CC2)C3)n1 [Example 14, 2-(cyclopropylmethyl)-6-(3-{1-[(4,4-difluorocyclohexyl)methyl]-1H-pyrazol-4-yl}-6-methylpyridin-2-yl)-2,3-dihydro-1H-isoindol-1-one]"
15,26.5,"Cc1ccc(-c2cnn(CC3(C)CCC(F)(F)CC3)c2)c(-c2ccc3c(c2)C(=O)N(C)C3)n1 [Example 15, 6-(3-{1-[(4,4-difluoro-1-methylcyclohexyl)methyl]-1H-pyrazol-4-yl}-6-methylpyridin-2-yl)-2-methyl-2,3-dihydro-1H-isoindol-1-one]"
16,61.7,"Cc1cn2ccc(-c3nc(C#N)ccc3-c3cnn(CC(C)(C)CC(F)(F)F)c3)cc2n1 [Example 16, 6-(2-methylimidazo[1,2-a]pyridin-7-yl)-5-[1-(4,4,4-trifluoro-2,2-dimethylbutyl)-1H-pyrazol-4-yl]pyridine-2-carbonitrile]"
17,277,"Cc1cn2ccc(-c3ncccc3-c3cnn(CC4(CC(F)F)CC4)c3)cc2n1 [Example 17, 7-[3-(1-{[1-(2,2-difluoroethyl)cyclo-propyl]methyl}-1H-pyrazol-4-yl)pyridin-2-yl]-2-methylimidazo[1,2-a]pyridine]"
18,61.4,"CCC(F)(F)Cn1cc(-c2ccc(C#N)nc2-c2ccn3ccnc3c2)cn1 [Example 18, 5-[1-(2,2-difluorobutyl)-1H-pyrazol-4-yl]-6-imidazo[1,2-a]pyridin-7-ylpyridine-2-carbonitrile]"
19,49.9,"N#Cc1ccc(-c2cnn(CC3(CF)CC3)c2)c(-c2ccn3ccnc3c2)n1 [Example 19, 5-(1-{[1-(fluoromethyl)cyclo-propyl]methyl}-1H-pyrazol-4-yl)-6-imidazo[1,2-a]pyridin-7-ylpyridine-2-carbonitrile]"
20,144,"Cc1cn2ccc(-c3nc(C#N)ccc3-c3cnn(CC(C)(F)F)c3)cc2n1 [Example 20, 5-[1-(2,2-difluoropropyl)-1H-pyrazol-4-yl]-6-(2-methylimidazo[1,2-a]pyridin-7-yl)pyridine-2-carbonitrile]"
21,30.7,"CC(C)C(F)(F)Cn1cc(-c2ccc(C#N)nc2-c2ccn3ccnc3c2)cn1 [Example 21, 5-[1-(2,2-difluoro-3-methylbutyl)-1H-pyrazol-4-yl]-6-imidazo[1,2-a]pyridin-7-ylpyridine-2-carbonitrile]"
22,202,"Cc1cn2ccc(-c3nc(C#N)ccc3-c3cnn(CC(F)(F)C(F)F)c3)cc2n1 [Example 22, 6-(2-methylimidazo[1,2-a]pyridin-7-yl)-5-[1-(2,2,3,3-tetrafluoropropyl)-1H-pyrazol-4-yl]pyridine-2-carbonitrile]"
23,78.1,"N#Cc1ccc(-c2cnn(C[C@H]3C[C@@H]3C(F)(F)F)c2)c(-c2ccn3ccnc3c2)n1 [Example 25, 6-imidazo[1,2-a]pyridin-7-yl-5-(1-{[(1S,2S)-2-(trifluoromethyl)cyclo-propyl]methyl}-1H-pyrazol-4-yl)pyridine-2-carbonitrile]"
24,25.5,Cc1ccc(-c2cnn(CC(C)(C)C(F)(F)F)c2)c(-c2ccn3ccnc3c2)n1 [Example 26]
25,74,"Cc1nc2cc(-c3nc(C#N)ccc3-c3cnn(CCC(C)(F)F)c3)ccc2n1C [Example 27, 5-[1-(3,3-difluorobutyl)-1H-pyrazol-4-yl]-6-(1,2-dimethyl-1H-benzimidazol-5-yl)pyridine-2-carbonitrile]"

row,SMILES,EC50 [nM]
1,"Cc1cn2ccc(-c3nc(C#N)ccc3-c3cnn(CC(F)(F)C(F)(F)C(F)F)c3)cc2n1 [Example 23, 5-[1-(2,2,3,3,4,4-hexafluorobutyl)-1H-pyrazol-4-yl]-6-(2-methylimidazo[1,2-a]pyridin-7-yl)pyridine-2-carbonitrile]",42.3
2,"N#Cc1ccc(-c2cnn(CC(F)(F)C(F)(F)C(F)(F)F)c2)c(-c2ccn3ccnc3c2)n1 [Example 24, 5-[1-(2,2,3,3,4,4,4-heptafluorobutyl)-1H-pyrazol-4-yl]-6-imidazo[1,2-a]pyridin-7-ylpyridine-2-carbonitrile]",89.9
